Test results: US20170000702A1, “PERSONAL CARE COMPOSITIONS COMPRISING A SENSATE” (The Gillette Park, priority 2015, published 2017)
Read-outs that look alike come from different tables or passages of the source.

How the values were obtained:
[1] = In use irritation Test 2 (single variable shave test with panelists); type: in vivo; conditions: control 5.60
Experimental: • In use irritation Test 2: Five samples are produced with the same blank testing formulation as in Test 1, above. Samples are tested with panelists in a single variable shave test with only the addition and level of sensate being varied.

human TRPA1 [2] = biological target: T1, human TRPA1 (Homo sapiens, UniProt O75762); test: Direct Addition Test Method, TRPA1 (FLIPR intracellular calcium); type: cell-based
T1 construct: expressed in transfected cells; host or cells: HEK-293
T1 sequence (O75762 whole entry): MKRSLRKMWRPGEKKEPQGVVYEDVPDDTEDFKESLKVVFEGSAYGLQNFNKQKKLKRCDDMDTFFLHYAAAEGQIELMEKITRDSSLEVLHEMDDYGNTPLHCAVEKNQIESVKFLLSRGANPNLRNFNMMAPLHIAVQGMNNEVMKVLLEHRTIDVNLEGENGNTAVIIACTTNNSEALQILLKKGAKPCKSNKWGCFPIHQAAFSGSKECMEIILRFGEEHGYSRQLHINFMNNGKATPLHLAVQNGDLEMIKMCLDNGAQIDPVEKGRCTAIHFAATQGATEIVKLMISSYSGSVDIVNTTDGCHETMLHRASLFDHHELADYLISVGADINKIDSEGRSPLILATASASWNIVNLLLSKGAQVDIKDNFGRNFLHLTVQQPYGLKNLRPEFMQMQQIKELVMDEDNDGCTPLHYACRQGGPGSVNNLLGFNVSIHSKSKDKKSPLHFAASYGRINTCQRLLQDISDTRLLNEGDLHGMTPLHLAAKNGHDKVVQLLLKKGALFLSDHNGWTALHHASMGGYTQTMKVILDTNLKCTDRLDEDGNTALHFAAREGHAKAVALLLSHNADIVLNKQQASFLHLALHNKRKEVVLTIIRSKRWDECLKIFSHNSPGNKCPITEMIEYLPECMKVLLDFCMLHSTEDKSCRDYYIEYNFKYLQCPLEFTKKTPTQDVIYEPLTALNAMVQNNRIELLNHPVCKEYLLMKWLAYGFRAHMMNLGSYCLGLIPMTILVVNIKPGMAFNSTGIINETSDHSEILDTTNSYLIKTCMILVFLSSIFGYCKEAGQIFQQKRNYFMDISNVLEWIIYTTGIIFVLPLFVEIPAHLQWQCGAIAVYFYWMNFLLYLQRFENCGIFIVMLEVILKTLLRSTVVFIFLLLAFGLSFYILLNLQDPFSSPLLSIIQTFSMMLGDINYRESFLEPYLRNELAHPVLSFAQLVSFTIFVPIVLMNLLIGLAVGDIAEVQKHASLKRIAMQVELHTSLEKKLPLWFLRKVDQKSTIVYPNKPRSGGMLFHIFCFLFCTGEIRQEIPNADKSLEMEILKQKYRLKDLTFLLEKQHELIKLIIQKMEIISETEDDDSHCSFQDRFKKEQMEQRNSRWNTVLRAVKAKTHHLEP
Experimental: (§1) The Pre-Incubation Test and Direct Addition Test Methods, as defined herein, can be conducted on either TRPV1 or TRPA1 receptors.
(§2) Pre-Incubation Test Method: First, the intracellular calcium ion (Ca^+2) levels in TRPV1 and TRPA1 receptors is measured. […] Cells are detached with addition of 10 ml of PBS (phosphate buffered saline) by hand shaking gently. Cells are transferred to a 50 ml tube and centrifuged at 850 rpm for 3 minutes to remove PBS. After centrifugation, a pellet of cells is formed in the bottom of the tube separating them from the supernatant solution. […] Fluo-4 is a fluorescent dye used for quantifying cellular Ca^2+ concentrations in the 100 nM to 1 microM range. At the end of the 30 minutes, 45 ml of assay buffer [1× HBSS (Hank's Balanced Salt Solution), 20 mM HEPES (4-(2-Hydroxyethyl)-1-piperazineethanesulfonic acid)] is added to wash cells and the resulting combination is then centrifuged at 850 rpm for 3 minutes to remove excess buffer and Fluo-4 AM calcium indicator.
(§3) The pellet cells are re-suspended in 10 ml assay buffer and 90 μl aliquots (˜50,000 cells) per well delivered to a 96-well assay plate containing 10 μl of test compounds (1 mM in assay buffer, final concentration 100 μM) or buffer control and incubated at room temperature for 30 minutes. […] The FLIPR assay is an accepted method for detecting changes in intracellular calcium concentration. Then 20 μl of the activators [1.8 μM Capsaicin (final concentration 300 nM) for TRPV1 or 300 μM AITC (final concentration 50 μM) for TRPA1 is added by FLIPR automatically and fluorescence recorded immediately.
(§4) Direct Addition Test Method (for determining the direct effect of test compounds on TRPV1 and TRPA1): All procedures are same as the pre-incubation test except 10 μl assay buffer instead of 10 μl test compounds in the 96-well assay plates. The fluorescence is measured immediately after addition of 20 μl of 600 μM each compound (final concentration 100 μM). The 20 μl of activator (capsaicin or AITC) is as the positive control. The percentage of up-regulation or down-regulation is calculated based on the fluorescence measurement.

human TRPA1 [3] = biological target: T1, human TRPA1; test: Pre-Incubation Test Method, TRPA1 (FLIPR intracellular calcium, AITC activator); type: cell-based
Experimental: as §1, §2, §3

human TRPV1 [4] = biological target: T2, human TRPV1 (Homo sapiens, UniProt Q8NER1); test: Pre-Incubation Test Method, TRPV1 (FLIPR intracellular calcium, capsaicin activator); type: cell-based
T2 construct: expressed in transfected cells; host or cells: HEK-293
T2 sequence (Q8NER1 whole entry): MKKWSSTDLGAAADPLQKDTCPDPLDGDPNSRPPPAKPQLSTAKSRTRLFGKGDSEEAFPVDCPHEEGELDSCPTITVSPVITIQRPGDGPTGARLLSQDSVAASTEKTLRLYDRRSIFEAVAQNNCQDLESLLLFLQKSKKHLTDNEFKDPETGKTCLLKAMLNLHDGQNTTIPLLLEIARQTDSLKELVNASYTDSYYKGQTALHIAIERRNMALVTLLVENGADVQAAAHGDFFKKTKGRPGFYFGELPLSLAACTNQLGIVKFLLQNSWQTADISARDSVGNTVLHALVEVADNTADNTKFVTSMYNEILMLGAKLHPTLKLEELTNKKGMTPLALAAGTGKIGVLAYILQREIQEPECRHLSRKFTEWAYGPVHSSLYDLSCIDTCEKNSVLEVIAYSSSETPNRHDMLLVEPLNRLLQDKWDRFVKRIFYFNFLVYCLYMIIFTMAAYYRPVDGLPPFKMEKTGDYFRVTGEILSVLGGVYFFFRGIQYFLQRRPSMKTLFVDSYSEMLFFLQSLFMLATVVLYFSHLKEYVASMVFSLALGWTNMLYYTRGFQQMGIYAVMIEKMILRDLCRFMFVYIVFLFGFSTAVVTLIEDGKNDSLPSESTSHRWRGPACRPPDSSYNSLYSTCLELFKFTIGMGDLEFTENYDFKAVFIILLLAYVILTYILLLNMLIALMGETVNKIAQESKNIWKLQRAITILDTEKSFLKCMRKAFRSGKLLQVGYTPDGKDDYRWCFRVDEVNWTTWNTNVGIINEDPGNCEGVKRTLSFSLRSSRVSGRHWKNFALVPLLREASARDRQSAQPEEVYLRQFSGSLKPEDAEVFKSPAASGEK
Experimental: as §1, §2, §3

human TRPV1 [5] = biological target: T2, human TRPV1; test: Direct Addition Test Method, TRPV1 (FLIPR intracellular calcium); type: cell-based
Experimental: as §1, §2, §3, §4

[6] = In use irritation Test 1 (single variable shave test with panelists); type: in vivo; conditions: control 6.3
Experimental: 10. In Use Irritation Data: • In use irritation Test 1: Five samples are produced with the following formulation. Samples are tested with panelists in a single variable shave test with only the addition and level of sensate being varied. Respondents provide average irritation ratings summarized below. • Testing formula: […]

[7] = TRPA1, HEK-293 cells, compound final concentration 100 μM, no pre-incubation, AITC as positive control
[8] = TRPA1, HEK-293 cells, test compound final concentration 100 μM, 30 minutes pre-incubation, activator AITC 50 μM
[9] = TRPV1, HEK-293 cells, test compound final concentration 100 μM, 30 minutes pre-incubation, activator Capsaicin 300 nM
[10] = TRPV1, HEK-293 cells, compound final concentration 100 μM, no pre-incubation, capsaicin as positive control
[11] = sensate added to control formula at 0.2%

Row | SMILES | Direct Addition % Regulation (human TRPA1 [2]; [7]) [%] | Pre-incubation % Regulation (human TRPA1 [3]; [8]) [%] | Pre-incubation % Regulation (human TRPV1 [4]; [9]) [%] | Direct Addition % Regulation (human TRPV1 [5]; [10]) [%] | other results
1 | C=C1CCC(C)C(C)(C)C1/C=C/C(C)=O (stereo not shown) | 4.96 | 23.55 | 22.16 | 5.24 | Avg Irritation Score ([1]; sensate at 0.1% in control formulation): 5.40
2 | Cc1cc(O)ccc1Cl [4-chloro-3-methylphenol] | 319.54 | −0.43 | 47.49 | 292.92 | Avg Irritation Score [6, 11]: 4.3
3 | CC(=O)CCC=C(C)C [6-Methyl-5-hepten-2-one, 6-methyl-5-hepten-2-one] |  |  |  |  | Avg Irritation Score ([6]; sensate added to control formula at 0.15%): 6.0
4 | OCc1ccccc1 [Benzyl Alcohol, benzyl alcohol] | 21.39 | 14.61 | 51.18 | −2.09 | Avg Irritation Score ([6]; sensate added to control formula at 1%): 4.8
5 | Cc1cc(O)cc(C)c1Cl [Chloroxylenol, chloroxylenol] | 381.06 | −0.08 | 37.52 | 326.69 | Avg Irritation Score [6, 11]: 5.2
6 | CC(C)C(=O)OCCOc1ccccc1 [Phenoxyethyl Isobutyrate, phenoxyethyl isobutyrate] | −7.84 | 36.8 | 41.34 | −6.84 | Avg Irritation Score ([1]; sensate at 0.13% in control formulation): 4.45
7 | CC(=O)[O][Zn][O]C(C)=O [Zinc Acetate, zinc acetate] |  |  |  |  | Avg Irritation Score ([1]; sensate at 0.03% in control formulation): 4.55; Direct Addition % Regulation (human TRPA1 [2]): −0.66%; Pre-incubation % Regulation (human TRPA1 [3]): 21.67%; Pre-incubation % Regulation (human TRPV1 [4]): 35.2%; Direct Addition % Regulation (human TRPV1 [5]): 0.88%
